The record followed here is patent US10800792B2, “Inhibitors of Bruton's tyrosine kinase and method of their use” (JANSSEN PHARMACEUTICA NV, priority 2015, dated 2020).

Chain of unphosphorylated-BTK kinase domain (UP-BTK), GST-tagged human BTK (389-659aa) (Q06187 389-659): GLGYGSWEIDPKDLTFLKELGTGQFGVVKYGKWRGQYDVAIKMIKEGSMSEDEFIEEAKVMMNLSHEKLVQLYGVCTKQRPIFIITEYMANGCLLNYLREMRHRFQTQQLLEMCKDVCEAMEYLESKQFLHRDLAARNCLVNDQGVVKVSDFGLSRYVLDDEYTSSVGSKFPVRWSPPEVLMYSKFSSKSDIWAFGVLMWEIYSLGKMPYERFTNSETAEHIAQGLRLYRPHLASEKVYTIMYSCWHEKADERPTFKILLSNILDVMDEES

One experiment addresses unphosphorylated-BTK kinase domain (UP-BTK), GST-tagged human BTK (389-659aa) (Homo sapiens (Human), UniProt Q06187). The experiment is described as follows: BTK kinase Lanthascreen binding assay. As to conditions: unphosphorylated-BTK kinase domain, 50 nM Tracer 236, 60 minutes; pIC50 = negative log of the IC50 in molar. The method, boiled down:
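Tracer-displacement binding assay against the non-phosphorylated enzyme, read by Lanthascreen. Reported: pIC50.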
(TR-FRET usually uses a lanthanide donor and a delayed reading to cut background.)
For `C=CC(=O)N1CC[C@@H](NC(=O)c2sc3nccc4c3c2NC(=O)N4c2ccc(Oc3ccccc3)c(Cl)c2)C1` [Example 558, (R)—N-(1-Acryloylpyrrolidin-3-yl)-5-(3-chloro-4-phenoxyphenyl)-4-oxo-4,5-dihydro-3H-1-thia-3,5,8-triazaacenaphthylene-2-carboxamide], the “BTK_I_binding pIC50” value came out at 7.7.

As for `N#C/C(=C\C1CC1)C(=O)N1CCC[C@@H](NC(=O)c2sc3nccc4c3c2NC(=O)N4c2ccnc(-c3ccccc3)c2)C1` [Example 559, (R,E)-N-(1-(2-Cyano-3-cyclopropylacryloyl)piperidin-3-yl)-4-oxo-5-(2-phenylpyridin-4-yl)-4,5-dihydro-3H-1-thia-3,5,8-triazaacenaphthylene-2-carboxamide], the “BTK_I_binding pIC50” value is listed as 8.2. Same read-out and setting: under `C=CC(=O)N1CCC[C@@H](NC(=O)c2sc3nccc4c3c2NC(=O)N4c2cccc(OC3CCCCC3)c2)C1` [Example 560, (R)—N-(1-Acryloylpiperidin-3-yl)-5-(3-(cyclohexyloxy)phenyl)-4-oxo-4,5-dihydro-3H-1-thia-3,5,8-triazaacenaphthylene-2-carboxamide] stands 7.6; under `C=CC(=O)N1CCC[C@@H](NC(=O)c2sc3nccc4c3c2NC(=O)N4c2cccc(OC3CCCC3)c2)C1` [Example 561, (R)—N-(1-Acryloylpiperidin-3-yl)-5-(3-(cyclopentyloxy)phenyl)-4-oxo-4,5-dihydro-3H-1-thia-3,5,8-triazaacenaphthylene-2-carboxamide], 7.3; under `Cc1cc(OC(C)C)ccc1N1C(=O)Nc2c(C(=O)N[C@@H]3CCN(C(=O)/C=C/CN(C)C)C3)sc3nccc1c23` [Example 562, (R,E)-N-(1-(4-(Dimethylamino)but-2-enoyl)pyrrolidin-3-yl)-5-(4-isopropoxy-2-methylphenyl)-4-oxo-4,5-dihydro-3H-1-thia-3,5,8-triazaacenaphthylene-2-carboxamide], 6.7.

`C=CC(=O)N1CCC[C@@H](NC(=O)c2sc3nccc4c3c2NC(=O)N4c2cccc(-c3ccccc3C(F)(F)F)c2)C1` [Example 563, (R)—N-(1-Acryloylpiperidin-3-yl)-4-oxo-5-(2′-(trifluoromethyl)-[1,1′-biphenyl]-3-yl)-4,5-dihydro-3H-1-thia-3,5,8-triazaacenaphthylene-2-carboxamide]: the “BTK_I_binding pIC50” value is given as 7.0.

On to `Cc1cc(Oc2ccccc2)ccc1N1C(=O)Nc2c(C(=O)N[C@@H]3CCCN(C(=O)[C@H](C)CO)C3)sc3nccc1c23` [Example 564, N—((R)-1-((R)-3-Hydroxy-2-methylpropanoyl)piperidin-3-yl)-5-(2-methyl-4-phenoxyphenyl)-4-oxo-4,5-dihydro-3H-1-thia-3,5,8-triazaacenaphthylene-2-carboxamide], for which the “BTK_I_binding pIC50” value stood at 7.2. The same measure, in the same setting: with `C=CC(=O)N1CCC[C@@H](NC(=O)c2sc3nccc4c3c2NC(=O)N4c2cccc(OC(C)C)c2)C1` [Example 565, (R)—N-(1-Acryloylpiperidin-3-yl)-5-(3-isopropoxyphenyl)-4-oxo-4,5-dihydro-3H-1-thia-3,5,8-triazaacenaphthylene-2-carboxamide] the figure was 7.0; with `C=CC(=O)N1CCC[C@@H](NC(=O)c2sc3nccc4c3c2NC(=O)N4c2cccc(C(C)=O)c2)C1` [Example 566, (R)-5-(3-Acetylphenyl)-N-(1-acryloylpiperidin-3-yl)-4-oxo-4,5-dihydro-3H-1-thia-3,5,8-triazaacenaphthylene-2-carboxamide], 6.6.

For the compound `C=CC(=O)N1CC[C@@H](NC(=O)c2sc3nccc4c3c2NC(=O)N4c2ccnc(-c3ccccc3)c2)C1` [Example 567, (R)—N-(1-Acryloylpyrrolidin-3-yl)-4-oxo-5-(2-phenylpyridin-4-yl)-4,5-dihydro-3H-1-thia-3,5,8-triazaacenaphthylene-2-carboxamide], the “BTK_I_binding pIC50” value came to 7.4. Take `C=CC(=O)N1CCC[C@@H](NC(=O)c2sc3nccc4c3c2NC(=O)N4c2cccc(OC(F)(F)F)c2)C1` [Example 568, (R)—N-(1-Acryloylpiperidin-3-yl)-4-oxo-5-(3-(trifluoromethoxy)phenyl)-4,5-dihydro-3H-1-thia-3,5,8-triazaacenaphthylene-2-carboxamide]: the “BTK_I_binding pIC50” value turned out to be 7.4.

On to `C=CC(=O)N1CCC[C@@H](NC(=O)c2sc3nccc4c3c2NC(=O)N4c2cccc(C3CC3)c2)C1` [Example 569, (R)—N-(1-Acryloylpiperidin-3-yl)-5-(3-cyclopropylphenyl)-4-oxo-4,5-dihydro-3H-1-thia-3,5,8-triazaacenaphthylene-2-carboxamide], for which the “BTK_I_binding pIC50” value is 7.0. Still for that read-out and setting: with `COC[C@@H](C)C(=O)N1CCC[C@@H](NC(=O)c2sc3nccc4c3c2NC(=O)N4c2ccc(Oc3ccccc3)cc2C)C1` [Example 571, N—((R)-1-((R)-3-Methoxy-2-methylpropanoyl)piperidin-3-yl)-5-(2-methyl-4-phenoxyphenyl)-4-oxo-4,5-dihydro-3H-1-thia-3,5,8-triazaacenaphthylene-2-carboxamide] the figure was 7.0; with `CN(C)CC(=O)N1CCC[C@@H](NC(=O)c2sc3nccc4c3c2NC(=O)N4c2ccc(Oc3ccccc3)c(Cl)c2)C1` [Example 572, (R)-5-(3-Chloro-4-phenoxyphenyl)-N-(1-(2-(dimethylamino)acetyl)piperidin-3-yl)-4-oxo-4,5-dihydro-3H-1-thia-3,5,8-triazaacenaphthylene-2-carboxamide], 7.1.

On to `CN(C)C/C=C/C(=O)N1CCC[C@@H](NC(=O)c2sc3nccc4c3c2NC(=O)N4c2cccc(-c3ccccc3)c2)C1` [Example 573, (R,E)-5-([1,1′-Biphenyl]-3-yl)-N-(1-(4-(dimethylamino)but-2-enoyl)piperidin-3-yl)-4-oxo-4,5-dihydro-3H-1-thia-3,5,8-triazaacenaphthylene-2-carboxamide], for which the “BTK_I_binding pIC50” value is recorded as 6.6.

Turning to `CNCC(=O)N1CCC[C@@H](NC(=O)c2sc3nccc4c3c2NC(=O)N4c2ccc(Oc3ccccc3)c(Cl)c2)C1` [Example 575, (R)-5-(3-Chloro-4-phenoxyphenyl)-N-(1-(2-(methylamino)acetyl)piperidin-3-yl)-4-oxo-4,5-dihydro-3H-1-thia-3,5,8-triazaacenaphthylene-2-carboxamide], the “BTK_I_binding pIC50” value stood at 7.3. Regarding `COCC(=O)N1CCC[C@@H](NC(=O)c2sc3nccc4c3c2NC(=O)N4c2ccc(Oc3ccccc3)cc2)C1` [Example 576, (R)—N-(1-(2-Methoxyacetyl)piperidin-3-yl)-4-oxo-5-(4-phenoxyphenyl)-4,5-dihydro-3H-1-thia-3,5,8-triazaacenaphthylene-2-carboxamide], the “BTK_I_binding pIC50” value is recorded as 7.3. `O=C(N[C@@H]1CCNC1)c1sc2nccc3c2c1NC(=O)N3c1ccc(Oc2ccccc2)c(Cl)c1` [Example 577, (R)-5-(3-Chloro-4-phenoxyphenyl)-4-oxo-N-(pyrrolidin-3-yl)-4,5-dihydro-3H-1-thia-3,5,8-triazaacenaphthylene-2-carboxamide]: the “BTK_I_binding pIC50” value came out at 7.2. For the compound `O=C1CCC(NC(=O)c2sc3nccc4c3c2NC(=O)N4c2ccc(Oc3ccccc3)cc2)CN1` (centres unmarked) [Example 578, 4-Oxo-N-(6-oxopiperidin-3-yl)-5-(4-phenoxyphenyl)-4,5-dihydro-3H-1-thia-3,5,8-triazaacenaphthylene-2-carboxamide], the “BTK_I_binding pIC50” value amounted to 6.9. Same read-out and setting: under `O=C(N[C@H]1CNC[C@@H]1F)c1sc2nccc3c2c1NC(=O)N3c1ccc(Oc2ccccc2)cc1` [Example 579, N-((3S,4S)-4-Fluoropyrrolidin-3-yl)-4-oxo-5-(4-phenoxyphenyl)-4,5-dihydro-3H-1-thia-3,5,8-triazaacenaphthylene-2-carboxamide] stands 6.9; under `Cc1ccc(-c2cccc(N3C(=O)Nc4c(C(=O)N[C@@H]5CCCNC5)sc5nccc3c45)c2)cc1` [Example 580, (R)-5-(4′-Methyl-[1,1′-biphenyl]-3-yl)-4-oxo-N-(piperidin-3-yl)-4,5-dihydro-3H-1-thia-3,5,8-triazaacenaphthylene-2-carboxamide], 6.9; under `O=C(N[C@@H]1CCCNC1)c1sc2nccc3c2c1NC(=O)N3c1ccc(Oc2ccccc2)c(Cl)c1` [Example 581, (R)-5-(3-Chloro-4-phenoxyphenyl)-4-oxo-N-(piperidin-3-yl)-4,5-dihydro-3H-1-thia-3,5,8-triazaacenaphthylene-2-carboxamide], 6.8.

For the compound `CC(=O)N1CCC[C@@H](NC(=O)c2sc3nccc4c3c2NC(=O)N4c2ccc(Oc3ccccc3)c(Cl)c2)C1` [Example 582, (R)—N-(1-Acetylpiperidin-3-yl)-5-(3-chloro-4-phenoxyphenyl)-4-oxo-4,5-dihydro-3H-1-thia-3,5,8-triazaacenaphthylene-2-carboxamide], the “BTK_I_binding pIC50” value was determined as 6.7. Consider `Cc1cc(N2C(=O)Nc3c(C(=O)N[C@@H]4CCCNC4)sc4nccc2c34)ccc1Oc1ccccc1` [Example 583, (R)-5-(3-Methyl-4-phenoxyphenyl)-4-oxo-N-(piperidin-3-yl)-4,5-dihydro-3H-1-thia-3,5,8-triazaacenaphthylene-2-carboxamide], for which the “BTK_I_binding pIC50” value was found to be 6.7.

Still in this experiment, the particulars now being: unphosphorylated-BTK kinase domain, 50 nM Tracer 236, 60 minutes; pIC50 = negative log of the IC50 in molar; read-out: BTK_I_binding pIC50 (converted).
Take `CN(C)C/C=C/C(=O)N1CC[C@@H](NC(=O)c2sc3nccc4c3c2NC(=O)N4c2cccc(-c3ccccc3)c2)C1` [Example 570, (R,E)-5-([1,1′-Biphenyl]-3-yl)-N-(1-(4-(dimethylamino)but-2-enoyl)pyrrolidin-3-yl)-4-oxo-4,5-dihydro-3H-1-thia-3,5,8-triazaacenaphthylene-2-carboxamide]: the IC50 is 63.1 nM. The same measure, in the same setting: under `C=CC(=O)N1CC[C@@H](NC(=O)c2sc3nccc4c3c2NC(=O)N4c2ccc(Oc3ccccc3)cc2)[C@@H](O)C1` [Example 574] stands 158 nM.
